Data as given in patent US20250161248A1, “Treating Chronic Myelomonocytic Leukemia with CXCL8 Receptor Inhibitors” (Institut Gustave Roussy, priority 2023, published 2025).
Entries after “also recorded” stand apart in the source; their conditions may differ.

Columns and labels:
[1] = tested on: healthy donor CD34+ cells (cord blood, bone marrow); experiment: Methylcellulose colony formation assay (healthy donor cells); type: cell-based, human; conditions: for colony forming capacity of wildtype CD34+ cells (total colony output): inhibitor 10 mM (so in the source) in combination with CXCL8 10 ng/mL, FIG. 6F
Method: (§1) Reagents, CXCR1/2 inhibitors Reparixin and Ladarixin were from MedChemTronica and Clinisciences, respectively, dissolved in dimethylsulfoxide (DMSO). Stem cell factor recombinant (SCF), interleukin-3 recombinant (IL-3), thrombopoietin recombinant (TPO), Fms-like tyrosine kinase 3 recombinant (FLT-3) and Interleukin 8 (IL-8 or CXCL8) were from Peprotech.
(§2) CD34^+ cultures, CD34^+ cells were cultured for 72 h at 1×10^5 cells/ml in complete MEM-alpha medium, SCF (50 ng/mL), IL-3 (10 ng/mL), TPO (10 ng/mL) and FLT-3 (50 ng/mL […]), to which CXCL8 was added in a 37° C. incubator with 5% CO2. Cells were counted after Trypan blue staining. For methylcellulose assays, CD34+ cells were plated in duplicate, at 500 cells with 1 mL complete methylcellulose (MethoCult™ H4034 Optimum, Stem cell) with indicated doses of CXCL8. Colonies were enumerated and phenotyped at day 14.

[2] = tested on: pancreatic ductal adenocarcinoma (PDAC); conditions: cited from earlier work
[3] = tested on: neutrophil-dependent airway inflammation; conditions: mice; cited from earlier work
[4] = tested on: wildtype CD34+ cells (cord blood, healthy donor bone marrow); experiment: CD34+ liquid culture, cell output/proliferation (healthy donor cells); type: cell-based, human; conditions: for proliferation of wildtype CD34+ cells in liquid culture: inhibitor 10 uM in combination with CXCL8 10 ng/mL, FIG. 12E
Method: as §1, §2

uveal melanoma = conditions: animal model of uveal melanoma; cited from earlier work
[5] = tested on: HER-2 negative metastatic breast cancer; conditions: phase I, in combination with paclitaxel chemotherapy; cited from earlier work
[6] = tested on: ischemia-reperfusion injury; conditions: clinical studies; cited from earlier work
[7] = tested on: thyroid cancer tumor cells; conditions: in vitro; cited from earlier work
CXCR1 and CXCR2 = conditions: CXCR1 over CXCR2; cited from earlier work
[8] = tested on: triple negative breast cancer; conditions: phase II, in combination with paclitaxel; cited from earlier work
CMML CD34+ cells [9] = experiment: Methylcellulose colony formation assay (CMML cells); type: cell-based, human; conditions: methylcellulose with CXCL8
Method: as §2

CMML CD34+ cells [10] = experiment: CD34+ liquid culture, cell output/proliferation (CMML cells); type: cell-based, human; conditions: liquid culture with CXCL8
Method: as §2

Compound	colony forming capacity of wildtype CD34+ cells (total colony output) [1]	antitumor activity of combination ([2]; mouse PDAC model, ladarixin combined with an anti-PD-1 monoclonal antibody)	activity in PDAC model ([2]; mouse model, ladarixin)	neutrophil-dependent airway inflammation [3]	proliferation of wildtype CD34+ cells in liquid culture [4]	TAM polarization (uveal melanoma)	tumor cell migration (uveal melanoma)	tolerability [5]	healthy donor CD34+ colony formation in presence of IGRAN supernatant ([1]; IGRAN supernatant plus reparixin 10 mM (so in the source), FIG. 6G)	neutrophil recruitment and inflammatory injury in ischemia-reperfusion [6]	direct anti-tumor activity, tumor cell proliferation [7]	potency to inhibit CXCR1 activity relative to CXCR2 (CXCR1 and CXCR2) [fold]	clinical benefit compared to paclitaxel alone [8]	colony number / colony forming capacity of healthy cord blood or bone marrow CD34+ cells ([1]; 14 days, CXCL8, CFU-GM and CFU-E affected, FIG. 6B, 6F)	CMML CD34+ cell proliferation in colony formation assays (CMML CD34+ cells [9])	CMML CD34+ cell proliferation (CMML CD34+ cells [10])	cord blood CD34+ cell proliferation ([4]; liquid culture with indicated doses of CXCL8, FIG. 6A)	adult healthy donor bone marrow CD34+ cell proliferation ([4]; liquid culture, CXCL8 10 ng/mL, 72 hours, FIG. 12A, 12E)
C[C@@H](C(=O)NS(C)(=O)=O)c1ccc(OS(=O)(=O)C(F)(F)F)cc1 [ladarixin, 4-[(2 R)-1-oxo-1-(methanesulfonamido)propan-2-yl]phenyl trifluoromethanesulfonate]	restored	improved antitumor activity compared to either agent alone	significant activity	improves neutrophil-dependent airway inflammation	restored	repolarized TAMs to a M1 phenotype	inhibited tumor cell migration	–	–	–	–	–	–	–	–	–	–	–
CC(C)Cc1ccc([C@@H](C)C(=O)NS(C)(=O)=O)cc1 [reparixin, R-(−)-2-(4-isobutylphenyl)propionyl methansulfonamide]	restored	–	–	–	restored	–	–	well tolerated	blocked the inhibitory effects of this supernatant	effectively regulate neutrophil recruitment and attenuate inflammatory injury	inhibiting tumor cell proliferation	400	no additional clinical benefit	–	–	–	–	–
CXCL8: Interleukin 8 (IL-8 or CXCL8) chemokine from Peprotech, added to CD34+ cultures	–	–	–	–	–	–	–	–	–	–	–	–	–	decrease in colony number; also recorded: decreased colony forming capacity	not affected	failed to inhibit	dose-dependent inhibition	decreased
